Experimental data as given in ChEMBL document CHEMBL1154035, “Synthesis, characterization, and anti-melanoma activity of tetra-O-substituted analogs of nordihydroguaiaretic acid” (Bioorg Med Chem Lett, 2009).

System: Mus musculus
Experiment: Toxicity in ip dosed mouse
Assay type: organism-based
Conditions: in vivo

For `CC(Cc1ccc(O)c(O)c1)C(C)Cc1ccc(O)c(O)c1` (configuration not stated) [NORDIHYDROGUAIARETIC ACID], the LD50 was 75 mg/kg.
With `COc1ccc(C[C@@H](C)[C@@H](C)Cc2ccc(OC)c(OC)c2)cc1OC` [TERAMEPROCOL] the LD50 was 1000 mg/kg.
